Data from patent publication US4745100A, “Stimulation of tear secretion” (Eye Research Institute of Retina Foundation, priority 1986, dated 1988).
“Also recorded” adds a separate entry of the source. No end group written: not given here.

Assays:
[1] = tested on: rabbits with dry eyes; assay: Tear film osmolality in dry eye rabbit after topical test drop; assay type: in vivo; conditions: 10 μl topical drop
Experimental: In vivo examples of the invention were conducted on rabbits with dry eyes. The dry eye disorder is created by surgically closing the duct that carries fluid from the main lacrimal gland to the tear film and surgically removing the nictitans and harderian glands. This leaves intact only the accessory glands that lie on the ocular surface. These rabbits develop increased tear film osmolality soon after the operation, a finding that is understood to be due to decreased tear production, and that is characteristic of dry eye. It is recognized that results of ophthalmologic tests using rabbits has close correlation with humans, and therefore the results carry over to humans.
The effect of topically applied isotonic buffer solution with and without VIP on tear film osmolality was studied in the dry eye rabbit. All test drops were ten μl in volume and were applied in each case six minutes after the instillation of proparacaine, which anesthetizes the surface of the eye and prevents reflex tearing. Tear samples were taken with a micropipette system, in the manner described in the article entitled "Osmolarity of Tear Microvolumes in Keratoconjunctivitis Sicca", by Gilbard et al, Arch Ophthalmol 96:677, 1978. Osmolality was measured by freezing-point depression.
The following protocol was used for each drop tested. Six minutes prior to instillation of the test drop proparacaine was instilled. At zero time a tear sample was taken for measurement of osmolality. At one minute the test drop was instilled. At six and at sixteen minutes, tear samples were taken for osmolality measurements. The procedure for instilling each test drop is that the drop of buffered solution was first instilled in the dry eye and measurements were taken followed by a drop of buffered solution containing VIP. The following test drops were instilled: (1) buffer solution, (2) buffer solution containing 2×10^-8 M VIP, (3) buffer solution, (4) buffer solution containing 2×10^-7 M VIP, (5) buffer solution, (6) buffer solution containing 2×10^-6 M VIP. The results are shown in FIGS. 1A, 1B, and 1C and FIGS. 2A, 2B, and 2C, where FIGS. 1 and 2 each represent the results obtained from the same rabbit.
In separate experiments, the effect of topically applied isotonic buffer solution with or without glucagon or secretin on tear film osmolality was studied in dry eye rabbits. All test drops were ten microliters in volume. Tear osmolality was measured one minute prior to drop instillation and five and fifteen minutes after drop instillation. A drop of buffered solution was first instilled in the dry eye and measurements were taken followed by a drop of buffered solution containing glucagon or secretin, depending on the test.

[2] = additives needed; cited from earlier work
[3] = tested on: dry eye rabbits; assay: Elimination of tracer Tc99m (sodium pertechnetate) from the tear film of dry eye rabbits; assay type: in vivo, rabbit; conditions: VIP 2×10^-6 M in 10 μl radioactive buffer
Experimental: In a separate example, dry eye rabbits were studied by examining the rate of elimination of a tracer substance technectium, Tc^99m, as sodium pertechnetate from the tear film. Essentially equivalent counts of Tc^99m were placed in ten microliters of, in some instances, a buffer solution to serve as a control, and in other instances, a buffer solution containing 2×10^-6 M VIP. Radioactivity present in the tear film was measured over contiguous fifteen second periods for thirty minutes with a gamma camera, and the measurements stored on a computer. The following protocol was used: Rabbits were anesthetized with IM rompun and ketamine. At zero time proparacaine was applied. At five minutes, the radioactive buffer with VIP was instilled in the eye. Radioactivity present in the tear film was then recorded as described. After thirty minutes, proparacaine was again instilled in the eye and the procedure repeated with radioactive buffer alone. […] This increased rate of tracer washout is understood to be indicative of increased tear secretion. In a second similar experiment, the effect of VIP was first tested, and then radioactive buffer alone, and then the effect of VIP again.

[4] = tested on: rat exorbital lacrimal gland; conditions: cited from earlier work
[5] = tested on: main (orbital) lacrimal gland; conditions: administered intravenously to rabbits; cited from earlier work
[6] = tested on: lacrimal gland; conditions: administered intra-arterially; cited from earlier work

Molecule: glucagon
- effect on tear film osmolality versus buffer solution alone ([1]; glucagon 2×10^-6, 2×10^-5, 2×10^-4 M, 5 and 15 min after drop, FIG. 6): lowers tear film osmolality more effectively than buffer solution alone; also recorded: dose-dependent decrease in tear film osmolality
- solubility [2]: requires the additives glycerin and lactose to render it soluble

Molecule: secretin
- effect on tear film osmolality versus buffer solution alone ([1]; secretin 2×10^-7, 2×10^-6, 2×10^-5 M, 5 and 15 min after drop, FIG. 7): lowers tear film osmolality more effectively than buffer solution alone; also recorded: dose-dependent decrease in tear film osmolality

Molecule: vasoactive intestinal peptide (HSDAVFTDNYTRLRKQMAVKKYLNSILN; ends and bridges not checked; UniProt P01282 125-152, looked up) [VIP]
- effect on tear film osmolality versus placebo, same experiment as CCK ([1]; VIP 2×10^-6 M, FIGS. 3A, 3B): decreased tear film osmolality more effectively than a placebo in one of two trials
- effect on tear film osmolality versus buffer solution alone ([1]; VIP 2×10^-8, 2×10^-7, 2×10^-6 M, samples at 6 and 16 min, FIGS. 1 and 2): lowers the tear film osmolality more effectively than buffer solution alone; also recorded: dose-dependent decrease in tear film osmolality
- slope of the elimination curve of Tc99m from tear film, first 15 minutes ([3]; topical, dry eye rabbit, placebo -0.82, FIG. 4): -1.65
- slope of the elimination curves versus radioactive buffer alone, second experiment ([3]; two VIP tests, FIG. 5): substantially steeper than for radioactive buffer alone
- protein secretion in vitro [4]: stimulate protein secretion in vitro
- main (orbital) lacrimal gland secretion [5]: can stimulate main (orbital) lacrimal gland secretion
- lacrimal gland secretion [6]: stimulate lacrimal gland secretion

B1: Cholecystokinin (peptide, UniProt P06307 21-115, looked up)
Cholecystokinin: QPVPPADPAGSGLQRAEEAPRRQLRVSQRTDGESRAHLGALLARYIQQARKAPSGRMSIVKNLQNLDPSHRISDRDYMGWMDFGRRSAEEYEYPS
modifications: Cholecystokinin
notes: gastrointestinal hormone tested topically as comparison
- effect on tear osmolality versus placebo ([1]; CCK 2×10^-4 M, FIG. 3B): did not lower tear osmolality more effectively than a placebo
- lacrimal gland secretion [6]: stimulate lacrimal gland secretion
